# Source: patent publication US20230201301A1 (priority 2020, published 2023)
# System: inflammatory cell-types in the lungs
# Design: species or system transgenic mice B6.Cg-Tg(K18-ACE2)2Prlmn/J
# Settings: mouse, in vivo, ip
sequence,measurement,value
LQEEDTGEYGCV (TLT-1 peptide) [LR12],CD4+ T cells in lungs vs vehicle,no effect
same,CD8+ T cells in lungs vs vehicle,no effect
same,CD45+ cells in lungs vs vehicle,decrease
same,NK cells in lungs vs vehicle,no effect
same,NKT cells in lungs vs vehicle,lower number
same,number of monocytes-derived macrophages in lungs vs vehicle,lower
same,number of neutrophils in lungs vs vehicle,lower
same,total number of cells in lungs vs vehicle,did not differ
